Measurements reported in article PMC4724238 (Biochemical and biophysical research communications, 2015).

How the values were obtained:
Experiment in all cases: reduction to DABS-Met, […] min
Format in all cases: biochemical
Details in all cases: no activator
[1] = molecular target: T1, eMsrA (Escherichia coli, UniProt P0A744)
T1 sequence (P0A744 2-212): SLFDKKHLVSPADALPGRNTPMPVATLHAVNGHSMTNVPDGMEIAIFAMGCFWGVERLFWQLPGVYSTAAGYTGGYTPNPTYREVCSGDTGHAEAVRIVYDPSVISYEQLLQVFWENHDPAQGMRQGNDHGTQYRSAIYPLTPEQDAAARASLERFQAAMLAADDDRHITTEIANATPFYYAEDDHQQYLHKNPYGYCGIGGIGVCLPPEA

[2] = molecular target: T2, hMsrA (myristoylated) (Homo sapiens, UniProt Q9UJ68)
T2 sequence (Q9UJ68 23-235): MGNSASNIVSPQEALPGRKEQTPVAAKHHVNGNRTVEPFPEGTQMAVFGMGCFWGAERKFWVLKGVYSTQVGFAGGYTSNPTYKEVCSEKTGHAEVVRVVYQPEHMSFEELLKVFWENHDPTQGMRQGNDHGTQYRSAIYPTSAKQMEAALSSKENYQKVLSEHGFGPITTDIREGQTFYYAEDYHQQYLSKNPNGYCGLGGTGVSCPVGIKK

[3] = molecular target: T3, bMsrA (Bos taurus, UniProt P54149)
T3 sequence (P54149 1-233 limits assumed): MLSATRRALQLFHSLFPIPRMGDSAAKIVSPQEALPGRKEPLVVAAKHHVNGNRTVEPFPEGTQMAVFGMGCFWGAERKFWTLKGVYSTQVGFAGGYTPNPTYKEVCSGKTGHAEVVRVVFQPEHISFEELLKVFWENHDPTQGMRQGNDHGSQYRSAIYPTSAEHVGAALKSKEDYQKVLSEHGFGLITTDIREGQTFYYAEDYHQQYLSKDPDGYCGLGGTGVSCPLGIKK

[4] = molecular target: T4, hMsrA (Homo sapiens, UniProt Q9UJ68)
T4 sequence (Q9UJ68 23-235): T2 sequence (Q9UJ68 23-235)

[5] = molecular target: T5, hMsrB3 (Homo sapiens, UniProt Q8IXL7)
T5 sequence (Q8IXL7 1-192 limits assumed): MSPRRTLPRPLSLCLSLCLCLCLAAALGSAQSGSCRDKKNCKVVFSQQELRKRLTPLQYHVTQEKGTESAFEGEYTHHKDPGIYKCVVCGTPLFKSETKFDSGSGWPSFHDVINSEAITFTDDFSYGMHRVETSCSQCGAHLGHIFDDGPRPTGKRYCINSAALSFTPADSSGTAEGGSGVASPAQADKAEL

[6] = molecular target: T6, eMsrB (Escherichia coli, UniProt P0A746)
T6 sequence (P0A746 2-137): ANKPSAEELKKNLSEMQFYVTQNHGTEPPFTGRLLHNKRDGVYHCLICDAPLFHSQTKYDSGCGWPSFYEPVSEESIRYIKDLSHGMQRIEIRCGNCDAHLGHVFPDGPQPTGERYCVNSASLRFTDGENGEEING

[7] = molecular target: hMsrB2 (Homo sapiens, UniProt Q9Y3D2)
Sequence of hMsrB2 (Q9Y3D2 whole entry): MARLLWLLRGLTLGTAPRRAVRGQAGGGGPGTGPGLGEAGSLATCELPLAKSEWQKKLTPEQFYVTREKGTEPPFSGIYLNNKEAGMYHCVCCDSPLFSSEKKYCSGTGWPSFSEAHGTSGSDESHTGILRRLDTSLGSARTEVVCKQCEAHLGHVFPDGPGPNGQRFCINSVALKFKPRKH

## CN(C)c1ccc(N=Nc2ccc(S(=O)(=O)N[C@@H](CC[S@+](C)[O-])C(=O)O)cc2)cc1 [DABS-Met-S-(o)]
[1]
  reduction to DABS-Met, 30 min: uses a synthetic substrate, either DABS-Met-S-(o) or DABS-Met-R-(o), to measure the activity of MsrA
[2]
  reduction to DABS-Met, 30 min: uses a synthetic substrate, either DABS-Met-S-(o) or DABS-Met-R-(o), to measure the activity of MsrA
[3]
  reduction to DABS-Met, 30 min: uses a synthetic substrate, either DABS-Met-S-(o) or DABS-Met-R-(o), to measure the activity of MsrA
[4]
  reduction to DABS-Met, 30 min: uses a synthetic substrate, either DABS-Met-S-(o) or DABS-Met-R-(o), to measure the activity of MsrA

## CN(C)c1ccc(N=Nc2ccc(S(=O)(=O)N[C@@H](CC[S@@+](C)[O-])C(=O)O)cc2)cc1 [DABS-Met-R-(o)]
[5]
  reduction to DABS-Met, 30 min: either DABS-Met-S-(o) or DABS-Met-R-(o), to measure the activity of MsrA and MsrB, respectively
[6]
  reduction to DABS-Met, 30 min: either DABS-Met-S-(o) or DABS-Met-R-(o), to measure the activity of MsrA and MsrB, respectively
[7]
  reduction to DABS-Met, 30 min: either DABS-Met-S-(o) or DABS-Met-R-(o), to measure the activity of MsrA and MsrB, respectively
